Experimental findings from patent publication US20240148740A1, “COMBINATION OF AN AHR INHIBITOR WITH A PDX INHIBITOR OR DOXORUBICINE” (Ikena Oncology, Inc., priority 2020, published 2024) are described below.

Entries after “also recorded” stand apart in the source; their conditions may differ. Like-named read-outs stand apart in the source and are kept apart here.

In series [1] the target is AHR (Macaca fascicularis, UniProt A0A7N9CQA9). Kind of series: AHR-dependent gene expression in cynomolgus PBMCs (Quantigene Plex). Type of series: cell-based, cynomolgus macaque. To be noted: cynomolgus PBMCs ex vivo. On the procedure: The effect of Compound A on AHR-dependent gene expression was assessed in peripheral blood mononuclear cells (PBMCs) of cynomolgus macaque monkeys to assess activity in the non-rodent tox species. Cynomolgus PBMCs were treated ex vivo with Compound A and gene expression of AHR-dependent genes CYP1B1 and AHR was quantified using Quantigene Plex (QGP) custom panels.

Series [2] deals with T1, AHR (Mus musculus, UniProt P30561).
T1 sequence (P30561 10-805): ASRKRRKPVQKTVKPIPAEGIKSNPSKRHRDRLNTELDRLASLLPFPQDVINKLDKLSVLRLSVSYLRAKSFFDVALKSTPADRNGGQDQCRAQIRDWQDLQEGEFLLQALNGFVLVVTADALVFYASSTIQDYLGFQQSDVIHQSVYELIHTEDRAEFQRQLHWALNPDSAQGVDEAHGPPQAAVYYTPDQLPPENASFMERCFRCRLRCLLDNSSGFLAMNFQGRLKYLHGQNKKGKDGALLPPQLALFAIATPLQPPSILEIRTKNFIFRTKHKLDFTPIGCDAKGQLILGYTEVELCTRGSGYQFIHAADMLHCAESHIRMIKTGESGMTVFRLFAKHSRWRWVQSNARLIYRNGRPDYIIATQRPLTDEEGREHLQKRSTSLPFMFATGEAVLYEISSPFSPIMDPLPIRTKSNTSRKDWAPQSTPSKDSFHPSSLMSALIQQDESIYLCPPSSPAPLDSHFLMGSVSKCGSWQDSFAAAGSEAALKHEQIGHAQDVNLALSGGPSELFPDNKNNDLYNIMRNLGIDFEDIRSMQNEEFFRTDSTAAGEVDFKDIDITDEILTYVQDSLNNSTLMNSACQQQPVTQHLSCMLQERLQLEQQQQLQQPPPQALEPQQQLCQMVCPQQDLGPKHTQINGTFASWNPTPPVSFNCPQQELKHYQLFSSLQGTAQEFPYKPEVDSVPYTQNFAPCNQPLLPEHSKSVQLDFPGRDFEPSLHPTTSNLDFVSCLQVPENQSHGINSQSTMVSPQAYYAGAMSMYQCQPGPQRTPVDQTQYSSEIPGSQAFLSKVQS
The series can be described thus: Pharmacodynamics: CYP1A1 mRNA in murine liver and spleen after VAG539. Type of series: in vivo.
Description: Mice were sacrificed at 4 and 10 hours postdose and RNA was extracted and gene expression of CYP1A1 and the housekeeping gene mouse glyceraldehyde 3-phosphate dehydrogenase were quantified. CYP1A1 mRNA expression levels for each dose group for liver and spleen tissues were normalized to the control group.

Series [3] in a line: Nonclinical safety: single-dose and repeated-dose toxicological studies. In kind it is in vivo, rodent and non-rodent species. Particulars: species not specified.
The nature of series [4]: Nonclinical safety studies in rat (incl. 28-day GLP). In kind it is in vivo.
A short description of series [5]: Phase 1 study, safety of single agent dose escalation. In kind it is in vivo. To be noted: 200 mg, 400 mg, 800 mg, and 1200 mg QD, monotherapy, human patients. An excerpt:
This is a first-in-human (FIH), open-label, multicenter, dose-escalation and expansion study to evaluate the safety, tolerability, PK, pharmacodynamics, and preliminary antitumor activity of Compound A administered orally (PO). There will be two arms: a single agent Compound A arm and a combination arm of Compound A with nivolumab in patients with advanced solid tumors and urothelial carcinoma. The Safety Review Committee (SRC) comprised of the enrolling study Investigators and the Sponsor will use the mTPI-2 design (Guo, 2017) and assess all safety data available to guide dose escalation and de-escalation decisions and subject enrollment for both arms. To assess evidence of preliminary antitumor activity in patients with urothelial carcinoma, a Simon 2-stage design (Simon, 1989) is used for both arms.
A baseline Screening period is followed by a by a Single-dose Run-in period (up to 7 days) to assess the PK of Compound A without food. The Single Agent treatment arm comprises daily oral administration of Compound A in the fed state. […]
Toxicity is evaluated according to National Cancer Institute Common Terminology Criteria for Adverse Events (AEs) (NCI-CTCAE) v5.0. […]

AHR (Macaca fascicularis, UniProt A0A7N9CQA9), sequence (A0A7N9CQA9 entry or part of it): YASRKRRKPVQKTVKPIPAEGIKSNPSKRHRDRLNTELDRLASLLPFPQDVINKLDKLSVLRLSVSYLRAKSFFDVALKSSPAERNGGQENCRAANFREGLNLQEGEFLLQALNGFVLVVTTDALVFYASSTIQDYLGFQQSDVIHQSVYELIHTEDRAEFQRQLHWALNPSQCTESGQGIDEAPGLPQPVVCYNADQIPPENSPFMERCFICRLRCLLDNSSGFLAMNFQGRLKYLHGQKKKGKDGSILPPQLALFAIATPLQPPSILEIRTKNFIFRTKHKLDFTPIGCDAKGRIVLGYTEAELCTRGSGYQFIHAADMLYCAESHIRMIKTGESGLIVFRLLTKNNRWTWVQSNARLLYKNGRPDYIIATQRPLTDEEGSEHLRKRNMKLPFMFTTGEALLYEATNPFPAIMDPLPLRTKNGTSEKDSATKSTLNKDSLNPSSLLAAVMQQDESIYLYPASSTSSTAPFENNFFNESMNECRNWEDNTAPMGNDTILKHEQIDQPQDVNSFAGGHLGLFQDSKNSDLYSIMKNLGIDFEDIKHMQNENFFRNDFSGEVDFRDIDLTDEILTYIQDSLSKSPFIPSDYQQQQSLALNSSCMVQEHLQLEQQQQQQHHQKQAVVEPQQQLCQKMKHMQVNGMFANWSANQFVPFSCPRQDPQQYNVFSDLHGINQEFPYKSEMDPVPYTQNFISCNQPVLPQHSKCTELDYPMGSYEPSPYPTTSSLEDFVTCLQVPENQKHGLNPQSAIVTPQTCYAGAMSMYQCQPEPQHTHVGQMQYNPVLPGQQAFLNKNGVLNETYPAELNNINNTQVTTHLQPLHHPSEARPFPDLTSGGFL

On to `CC(C)c1cnn2c(N[C@@H]3CCc4[nH]c5ccccc5c4C3)nc(-c3cncc(F)c3)nc12` [Compound A, (R)—N-(2-(5-fluoropyridin-3-yl)-8-isopropylpyrazolo[1,5-a][1,3,5]triazin-4-yl)-2,3,4,9-tetrahydro-1H-carbazol-3-amine], for which the IC50 at AHR [1] (read-out: IC50, inhibition of AHR target gene AHR) was determined as 0.03 µM; at AHR [1] (read-out: IC50, inhibition of AHR target gene Cyp1B1) it was 0.006 µM. Further, the “inhibition of CYP1A1 mRNA induction, spleen” value against AHR [2] (25 mg/kg Compound A oral with VAG539, at 4 hours) was “complete inhibition”. For the same compound, on AHR [2] (25 mg/kg Compound A oral, coadministered with 30 mg/kg VAG539), the “inhibition of CYP1A1 mRNA increases induced by VAG539, liver” value is listed as “Complete inhibition”. In series [3], the noteworthy findings entry was “emesis, loose stool, dehydration, body weight loss”. Also, in series [4], the “noteworthy findings (rats)” value was “non-glandular stomach ulceration and edema; also recorded: seminiferous tubule degeneration and debris in the epididymis lumen”. Moreover, the “serious adverse events (SAEs)” value in series [5] is “no serious adverse events; also recorded: without any drug-related serious adverse events”.

In general, IC50 refers to the concentration at which inhibition is half-maximal.
